What was measured:
barnyardgrass [1] = assay: Test C flooded paddy test; type: in vivo, Echinochloa crus-galli
Procedure, shortened: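 Weeds and wheat were sprayed after emergence, at a height of 2 to 18 cm (1–4 leaves), and paddy barnyardgrass was flooded and treated at two leaves. Assessment took place 12–14 days later in the greenhouse on a 0-to-100 visual control scale. A dash means no result was obtained.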

Surinam grass = assay: Test B pre-/postemergence herbicide test; type: in vivo, Urochloa decumbens; conditions: for Plant response rating, Surinam Grass: preemergence; for Surinam Grass plant response rating: postemergence, visual rating, scale 0 (no effect) to 100 (complete control)
Procedure, shortened: (§1)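 Greenhouse pot assay with simultaneous preemergence (treated seed) and postemergence (2–18 cm seedlings) applications of surfactant-containing, non-phytotoxic solvent formulations. Response scored visually 13–15 days later on a 0–100 scale, 100 meaning complete control.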

lambsquarters = assay: Test B pre-/postemergence herbicide test; type: in vivo, Chenopodium album; conditions: for Plant response rating, Lambsquarters: preemergence; for Lambsquarters plant response rating: postemergence, visual rating, scale 0 (no effect) to 100 (complete control)
Procedure, shortened: as §1

rice [2] = assay: Test C flooded paddy test; type: in vivo, Oryza sativa
Procedure, shortened: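 Plants were grown to the 1- to 4-leaf stage (2–18 cm) and then treated postemergence, or grown to the 2-leaf stage for the flooded paddy test. They were held in a greenhouse for 12 to 14 days and then scored by eye against controls, where 0 is no effect and 100 is complete control.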

barnyardgrass [3] = assay: Test B flooded paddy test; type: in vivo, Echinochloa crus-galli; conditions: 1000 g ai/ha, visual rating, scale 0 to 100 (0 no effect, 100 complete control), 13 to 15 days
Procedure, shortened: (§2)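 Plants grow to 1- to 4-leaf stage (2–18 cm) for postemergence spraying, or to 2-leaf stage for the paddy test. Formulated compound is applied. Greenhouse holding lasts 13–15 days. Response is scored visually relative to controls, 0 no effect to 100 complete control; a dash means no result.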

barnyardgrass [4] = assay: Test B pre-/postemergence herbicide test; type: in vivo, Echinochloa crus-galli; conditions: for Plant response rating, Barnyardgrass: preemergence; for Barnyardgrass plant response rating: postemergence, visual rating, scale 0 (no effect) to 100 (complete control)
Procedure, shortened: (§3)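 Species tested were Echinochloa crus-galli, Ipomoea coccinea, Xanthium strumarium and Oryza sativa, treated both before emergence and at the 1- to 4-leaf stage; rice and barnyardgrass were also tested under flooding at 2 leaves. Greenhouse incubation lasted 13–15 days before visual 0–100 scoring.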

rice [5] = assay: Test B pre-/postemergence herbicide test; type: in vivo, Oryza sativa; conditions: preemergence
Procedure, shortened: as §3

rice [6] = assay: Test B flooded paddy test; type: in vivo, Oryza sativa; conditions: 1000 g ai/ha, visual rating, scale 0 to 100 (0 no effect, 100 complete control), 13 to 15 days
Procedure, shortened: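 Greenhouse test; postemergence application to plants at 1–4 leaves (2–18 cm); paddy species at 2 leaves; evaluated visually vs controls at 13–15 days; scale 0–100 (100 = complete control).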

wild oat = assay: Test B postemergence herbicide test; type: in vivo, Avena fatua; conditions: postemergence, visual rating, scale 0 (no effect) to 100 (complete control)
Procedure, shortened: (§4)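 After treating 2-leaf paddy plants or 2–18 cm postemergence plants (1 to 4 leaves) with formulated chemical, researchers kept them in a greenhouse for 13–15 days. Effects were judged visually versus controls: 0 indicates none, 100 total control.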

cocklebur = assay: Test B pre-/postemergence herbicide test; type: in vivo, Xanthium strumarium; conditions: for Plant response rating, Cocklebur: preemergence; for Cocklebur plant response rating: postemergence, visual rating, scale 0 (no effect) to 100 (complete control)
Procedure, shortened: as §3

corn = assay: Test B pre-/postemergence herbicide test; type: in vivo, Zea mays; conditions: for Plant response rating, Corn: preemergence; for Corn plant response rating: postemergence, visual rating, scale 0 (no effect) to 100 (complete control)
Procedure, shortened: as §1

[7] = test system: smallflower umbrella sedge; assay: Test C flooded paddy test; type: in vivo, Cyperus difformis
ducksalad [8] = assay: Test C flooded paddy test; type: in vivo, Heteranthera limosa
wheat = assay: Test B postemergence herbicide test; type: in vivo, Triticum aestivum; parameters: key to Wheat plant response rating: 0 = no effect, 100 = complete control; conditions: postemergence, 500 g ai/ha; visual rating, scale 0 (no effect) to 100 (complete control)
Procedure, shortened: as §4

ducksalad [9] = assay: Test B flooded paddy test; type: in vivo, Heteranthera limosa; conditions: 1000 g ai/ha, visual rating, scale 0 to 100 (0 no effect, 100 complete control), 13 to 15 days
Procedure, shortened: as §2

giant foxtail = assay: Test B pre-/postemergence herbicide test; type: in vivo, Setaria faberi; conditions: for Plant response rating, Foxtail, Giant: preemergence; for Foxtail, Giant plant response rating: postemergence, visual rating, scale 0 (no effect) to 100 (complete control)
Procedure, shortened: as §1

pigweed = assay: Test B pre-/postemergence herbicide test; type: in vivo, Amaranthus retroflexus; conditions: for Plant response rating, Pigweed: preemergence; for Pigweed plant response rating: postemergence, visual rating, scale 0 (no effect) to 100 (complete control)
Procedure, shortened: as §1

blackgrass = assay: Test B postemergence herbicide test; type: in vivo, Alopecurus myosuroides; conditions: postemergence, visual rating, scale 0 (no effect) to 100 (complete control)
Procedure, shortened: as §2

morningglory = assay: Test B pre-/postemergence herbicide test; type: in vivo, Ipomoea coccinea; conditions: for Morningglory plant response rating: postemergence, visual rating, scale 0 (no effect) to 100 (complete control)
Procedure, shortened: as §3

velvetleaf = assay: Test B pre-/postemergence herbicide test; type: in vivo, Abutilon theophrasti; conditions: for Plant response rating, Velvetleaf: preemergence; for Velvetleaf plant response rating: postemergence, visual rating, scale 0 (no effect) to 100 (complete control)
Procedure, shortened: as §1

large crabgrass = assay: Test B pre-/postemergence herbicide test; type: in vivo, Digitaria sanguinalis; conditions: for Plant response rating, Crabgrass, Large: preemergence; for Crabgrass, Large plant response rating: postemergence, visual rating, scale 0 (no effect) to 100 (complete control)
Procedure, shortened: as §1

[10] = test system: small flower umbrella sedge; assay: Test B flooded paddy test; type: in vivo, Cyperus difformis; conditions: 1000 g ai/ha, visual rating, scale 0 to 100 (0 no effect, 100 complete control), 13 to 15 days
Procedure, shortened: as §2

[11] = 62 g ai/ha, scale 0 to 100 (0 no effect, 100 complete control)
[12] = 250 g ai/ha, scale of 0 to 100, 0 is no effect, 100 is complete control
[13] = 500 g ai/ha, visual rating after 12 to 14 days, scale 0 to 100 (0 no effect, 100 complete control)
[14] = 500 g ai/ha, visual rating 0-100, 0 no effect, 100 complete control
[15] = 125 g ai/ha, 0 to 100 scale, 0 is no effect, 100 is complete control
[16] = 125 g ai/ha, scale 0 to 100 (0 no effect, 100 complete control)

SMILES: CCn1nc(C(C)(C)C)cc1C(=O)Nc1cc(C(=O)N2CC=CC2)ccn1 [Compound 142]
- Barnyardgrass plant response rating (barnyardgrass [1]; [11]): 50
- Barnyardgrass plant response rating (barnyardgrass [1]; 125 g ai/ha, scale of 0 to 100, 0 is no effect, 100 is complete control): 65
- Barnyardgrass plant response rating (barnyardgrass [1]; [12]): 80
- Plant response rating, Barnyardgrass (barnyardgrass [1]; [13]): 90
- Plant response rating, Surinam Grass (Surinam grass; [14]): 60
- Surinam Grass plant response rating (Surinam grass; 125 g ai/ha): 10
- Surinam Grass plant response rating (Surinam grass; 500 g ai/ha): 20
- Plant response rating, Surinam Grass (Surinam grass; [15]): 10
- Plant response rating, Lambsquarters (lambsquarters; [14]): 100
- Lambsquarters plant response rating (lambsquarters; 125 g ai/ha): 60
- Lambsquarters plant response rating (lambsquarters; 500 g ai/ha): 80
- Plant response rating, Lambsquarters (lambsquarters; [15]): 100
- Rice plant response rating (rice [2]; [11]): 70
- Rice plant response rating (rice [2]; [16]): 70
- Rice plant response rating (rice [2]; [12]): 70
- Plant response rating, Rice (rice [2]; [13]): 70
- Barnyardgrass plant response rating (barnyardgrass [3]): 90
- Plant response rating, Barnyardgrass (barnyardgrass [4]; [14]): 100
- Barnyardgrass plant response rating (barnyardgrass [4]; 125 g ai/ha): 0
- Barnyardgrass plant response rating (barnyardgrass [4]; 500 g ai/ha): 10
- Plant response rating, Barnyardgrass (barnyardgrass [4]; [15]): 70
- Plant response rating, Rice (rice [5]; [14]): 80
- Plant response rating, Rice (rice [5]; [15]): 30
- Rice plant response rating (rice [6]): 70
- Oat, Wild plant response rating (wild oat; 125 g ai/ha): 20
- Oat, Wild plant response rating (wild oat; 500 g ai/ha): 20
- Plant response rating, Cocklebur (cocklebur; [14]): 40
- Cocklebur plant response rating (cocklebur; 125 g ai/ha): 40
- Cocklebur plant response rating (cocklebur; 500 g ai/ha): 40
- Plant response rating, Cocklebur (cocklebur; [15]): 30
- Plant response rating, Corn (corn; [14]): 0
- Corn plant response rating (corn; 125 g ai/ha): 0
- Corn plant response rating (corn; 500 g ai/ha): 0
- Plant response rating, Corn (corn; [15]): 0
- Sedge, Umbrella plant response rating [7, 11]: 75
- Sedge, Umbrella plant response rating [7, 16]: 80
- Sedge, Umbrella plant response rating [7, 12]: 80
- Plant response rating, Sedge, Umbrella [7, 13]: 90
- Ducksalad plant response rating (ducksalad [8]; [11]): 75
- Ducksalad plant response rating (ducksalad [8]; [16]): 90
- Ducksalad plant response rating (ducksalad [8]; [12]): 95
- Plant response rating, Ducksalad (ducksalad [8]; [13]): 100
- Wheat plant response rating (wheat): 10
- Ducksalad plant response rating (ducksalad [9]): 90
- Plant response rating, Foxtail, Giant (giant foxtail; [14]): 100
- Foxtail, Giant plant response rating (giant foxtail; 125 g ai/ha): 30
- Foxtail, Giant plant response rating (giant foxtail; 500 g ai/ha): 30
- Plant response rating, Foxtail, Giant (giant foxtail; [15]): 60
- Plant response rating, Pigweed (pigweed; [14]): 100
- Pigweed plant response rating (pigweed; 125 g ai/ha): 50
- Pigweed plant response rating (pigweed; 500 g ai/ha): 60
- Plant response rating, Pigweed (pigweed; [15]): 100
- Blackgrass plant response rating (blackgrass; 125 g ai/ha): 40
- Blackgrass plant response rating (blackgrass; 500 g ai/ha): 40
- Plant response rating, Morningglory (morningglory; 500 g ai/ha, visual rating 0-100, 0 no effect, 100 complete control, preemergence): 30
- Morningglory plant response rating (morningglory; 125 g ai/ha): 0
- Morningglory plant response rating (morningglory; 500 g ai/ha): 50
- Plant response rating, Velvetleaf (velvetleaf; [14]): 100
- Velvetleaf plant response rating (velvetleaf; 125 g ai/ha): 10
- Velvetleaf plant response rating (velvetleaf; 500 g ai/ha): 60
- Plant response rating, Velvetleaf (velvetleaf; [15]): 80
- Plant response rating, Crabgrass, Large (large crabgrass; [14]): 100
- Crabgrass, Large plant response rating (large crabgrass; 125 g ai/ha): 0
- Crabgrass, Large plant response rating (large crabgrass; 500 g ai/ha): 10
- Plant response rating, Crabgrass, Large (large crabgrass; [15]): 80
- Sedge, Umbrella plant response rating [10]: 80
